The values that follow come from US12637454B2, “Heterocyclic monoacylglycerol lipase (MAGL) inhibitors” (Hoffmann-La Roche Inc., priority 2019, dated 2026).

The target of the assay is T1, MAGL (Homo sapiens, UniProt Q99685).
T1 sequence (Q99685 1-303): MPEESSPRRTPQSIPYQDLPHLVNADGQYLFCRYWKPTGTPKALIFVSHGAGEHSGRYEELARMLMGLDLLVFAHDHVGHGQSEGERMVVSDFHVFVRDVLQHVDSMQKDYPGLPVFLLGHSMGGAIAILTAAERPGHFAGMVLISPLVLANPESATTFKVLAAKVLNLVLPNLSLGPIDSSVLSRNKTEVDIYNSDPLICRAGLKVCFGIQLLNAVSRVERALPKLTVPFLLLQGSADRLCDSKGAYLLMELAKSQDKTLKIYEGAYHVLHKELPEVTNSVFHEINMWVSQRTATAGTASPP
The experiment in a line: 2-AG assay (MAGL inhibitory activity, hydrolysis of 2-arachidonoylglycerol followed by mass spectrometry). Format: biochemical. The settings on record: 50 pM MAGL, 8 μM 2-arachidonoylglycerol, 15 min preincubation, 30 min incubation at RT. The protocol: Compounds were profiled for MAGL inhibitory activity by determining the enzymatic activity by following the hydrolysis of the natural substrate 2-arachidonoylglycerol (2-AG) resulting in arachidonic acid, which can be followed by mass spectrometry. This assay is hereinafter abbreviated “2-AG assay”.
The 2-AG assay was carried out in 384 well assay plates (PP, Greiner Cat #784201) in a total volume of 20 μL. Compound dilutions were made in 100% DMSO (VWR Chemicals 23500.297) in a polypropylene plate in 3-fold dilution steps to give a final concentration range in the assay from 12.5 μM to 0.8 pM. 0.25 μL compound dilutions (100% DMSO) were added to 9 μL MAGL in assay buffer (50 mM TRIS (GIBCO, 15567-027), 1 mM EDTA (Fluka, 03690-100 mL), 0.01% (v/v) Tween. After shaking, the plate was incubated for 15 min at RT. To start the reaction, 10 μL 2-arachidonoylglycerol in assay buffer was added. The final concentrations in the assay was 50 pM MAGL and 8 μM 2-arachidonoylglyerol. After shaking and 30 min incubation at RT, the reaction was quenched by the addition of […] of ACN containing 4 μM of d8-arachidonic acid. The amount of arachidonic acid was traced by an online SPE system (Agilent Rapidfire) coupled to a triple quadrupole mass spectrometer (Agilent 6460). A C18 SPE cartridge (G9205A) was used in an ACN/water liquid setup. The mass spectrometer was operated in negative electrospray mode following the mass transitions 303.1→259.1 for arachidonic acid and 311.1→267.0 for d8-arachidonic acid. The activity of the compounds was calculated based on the ratio of intensities [arachidonic acid/d8-arachidonic acid].
For orientation: IC50 means the concentration that inhibits the measured activity by half. The compound “4-[(E)-2-[3-[(7R,9aR)-7-(4-Chlorophenyl)-1,3,4,6,7,8,9,9a-octahydropyrido[1,2-a]pyrazine-2-carbonyl]-2-bromo-phenyl]vinyl]-N-methyl-benzamide and 3-[(E)-2-[4-[(7R,9aR)-7-(4-chlorophenyl)-1,3,4,6,7,8,9,9a-octahydropyrido[1,2-a]pyrazine-2-carbonyl]phenyl]vinyl]-2-bromo-N-methyl-benzamide [Example 31]” returned a concentration for half-maximal inhibition (IC50) of 3.72 nM. Next, `COc1cccc(C(=O)N2CCN3C[C@@](O)(CC(C)C)CC[C@@H]3C2)c1Cl` (racemic) [Example 24, (2-Chloro-3-methoxyphenyl)-[rac-(7R,9aS)-7-hydroxy-7-(2-methylpropyl)-3,4,6,8,9,9a-hexahydro-1H-pyrido[1,2-a]pyrazin-2-yl]methanone]: 626 nM; `COc1cccc(C(=O)N2CCN3C[C@@](O)(C4CCCC4)CC[C@@H]3C2)c1Cl` (racemic) [Example 25, (2-chloro-3-methoxyphenyl)-[rac-(7R,9aS)-7-cyclopentyl-7-hydroxy-3,4,6,8,9,9a-hexahydro-1H-pyrido[1,2-a]pyrazin-2-yl]methanone]: 548 nM.

In turn, `COc1cccc(C(=O)N2CCN3C[C@@](O)(C(F)(F)F)CC[C@@H]3C2)c1Cl` (racemic) [Example 26, (2-Chloro-3-methoxyphenyl)-[rac-(7R,9aR)-7-hydroxy-7-(trifluoromethyl)-3,4,6,8,9,9a-hexahydro-1H-pyrido[1,2-a]pyrazin-2-yl]methanone] showed a 50% inhibitory concentration (IC50) of 678 nM. Next, `CC1(O)CCN(c2cccc(C(=O)N3CCN4C[C@@](O)(c5ccc(Cl)cc5)CC[C@@H]4C3)c2Cl)C1` (mixture of isomers) [Example 50, [2-chloro-3-(3-hydroxy-3-methylpyrrolidin-1-yl)phenyl]-[rac-(7R,9aS)-7-(4-chlorophenyl)-7-hydroxy-3,4,6,8,9,9a-hexahydro-1H-pyrido[1,2-a]pyrazin-2-yl]methanone]: 72.4 nM. `COc1cccc(C(=O)N2CCN3CC(O)(c4ccc(C(F)(F)F)nc4)CCC3C2)c1Cl` (racemic) [Example 71, (2-chloro-3-methoxyphenyl)-[rac-(7R,9aR)-7-hydroxy-7-[6-(trifluoromethyl)pyridin-3-yl]-3,4,6,8,9,9a-hexahydro-1H-pyrido[1,2-a]pyrazin-2-yl]methanone] came in with a concentration for half-maximal inhibition (IC50) of 278 nM. For the compound `COc1cccc(C(=O)N2CCN3CC(O)(c4ccc(C(F)(F)F)nc4)CCC3C2)c1Cl` (racemic) [Example 72, (2-chloro-3-methoxyphenyl)-[rac-(7R,9aS)-7-hydroxy-7-[6-(trifluoromethyl)pyridin-3-yl]-3,4,6,8,9,9a-hexahydro-1H-pyrido[1,2-a]pyrazin-2-yl]methanone], the 50% inhibitory concentration (IC50) was determined as 3490 nM. `O=C(c1cccc(OC(F)F)c1Cl)N1CCN2C[C@@](O)(c3ccc(C(F)(F)F)cn3)CC[C@@H]2C1` (stereo in doubt) [Example 37, [(7R,9aR)-7-hydroxy-7-[5-(trifluoromethyl)pyridin-2-yl]-3,4,6,8,9,9a-hexahydro-1H-pyrido[1,2-a]pyrazin-2-yl]-[2-chloro-3-(difluoromethoxy)phenyl]methanone]: the IC50 came to 898 nM. Next, `O=C(c1cccc(OC(F)F)c1Cl)N1CCN2C[C@](O)(c3ccc(C(F)(F)F)cn3)CC[C@H]2C1` (stereo in doubt) [Example 38, [(7S,9aS)-7-hydroxy-7-[5-(trifluoromethyl)pyridin-2-yl]-3,4,6,8,9,9a-hexahydro-1H-pyrido[1,2-a]pyrazin-2-yl]-[2-chloro-3-(difluoromethoxy)phenyl]methanone]: 327 nM; `COc1cccc(C(=O)N2CCN3C[C@@](O)(c4ccc(F)c(Cl)c4)CC[C@@H]3C2)c1Cl` [Example 1, [(7S,9aR)-7-(3-Chloro-4-fluorophenyl)-7-hydroxy-3,4,6,8,9,9a-hexahydro-1H-pyrido[1,2-a]pyrazin-2-yl]-(2-chloro-3-methoxyphenyl)methanone]: 4.48 nM; `COc1cccc(C(=O)N2CCN3C[C@](O)(c4ccc(F)c(Cl)c4)CC[C@H]3C2)c1Cl` [Example 2, [(7R,9aS)-7-(3-chloro-4-fluorophenyl)-7-hydroxy-3,4,6,8,9,9a-hexahydro-1H-pyrido[1,2-a]pyrazin-2-yl]-(2-chloro-3-methoxyphenyl)methanone]: 18.8 nM. Next, `O=C(c1cccc(-c2ccn[nH]2)c1Cl)N1CCN2C[C@@](O)(c3ccc(Cl)cc3)CC[C@@H]2C1` [Example 3, [(7S,9aR)-7-(4-chlorophenyl)-7-hydroxy-3,4,6,8,9,9a-hexahydro-1H-pyrido[1,2-a]pyrazin-2-yl]-[2-chloro-3-(1H-pyrazol-5-yl)phenyl]methanone]: 4.31 nM. Next, `O=C(c1cccc(-c2ccn[nH]2)c1Cl)N1CCN2C[C@](O)(c3ccc(Cl)cc3)CC[C@H]2C1` [Example 4, [(7R,9aS)-7-(4-chlorophenyl)-7-hydroxy-3,4,6,8,9,9a-hexahydro-1H-pyrido[1,2-a]pyrazin-2-yl]-[2-chloro-3-(1H-pyrazol-5-yl)phenyl]methanone]: 76.3 nM; `O=C(c1cccc(-c2c[nH]nc2F)c1Cl)N1CCN2C[C@@](O)(c3ccc(Cl)cc3)CC[C@@H]2C1` [Example 5, [(7S,9aR)-7-(4-chlorophenyl)-7-hydroxy-3,4,6,8,9,9a-hexahydro-1H-pyrido[1,2-a]pyrazin-2-yl]-[2-chloro-3-(3-fluoro-1H-pyrazol-4-yl)phenyl]methanone]: 1.95 nM; `O=C(c1cccc(-c2c[nH]nc2F)c1Cl)N1CCN2C[C@](O)(c3ccc(Cl)cc3)CC[C@H]2C1` [Example 6, [(7R,9aS)-7-(4-chloropheny1)-7-hydroxy-3,4,6,8,9,9a-hexahydro-1H-pyrido[1,2-a]pyrazin-2-yl]-[2-chloro-3-(3-fluoro-1H-pyrazol-4-yl)phenyl]methanone]: 17.2 nM. The compound `COc1ccc(C(=O)N2CCN3C[C@@](O)(c4ccc(Cl)cc4)CC[C@@H]3C2)c(Cl)n1` [Example 7, [(7S,9aR)-7-(4-chlorophenyl)-7-hydroxy-3,4,6,8,9,9a-hexahydro-1H-pyrido[1,2-a]pyrazin-2-yl]-(2-chloro-6-methoxypyridin-3-yl)methanone] came in with an IC50 of 398 nM. In turn, `Cc1nc(N)ccc1C(=O)N1CCN2C[C@@](O)(c3ccc(Cl)cc3)CC[C@@H]2C1` [Example 8, [(7S,9aR)-7-(4-chlorophenyl)-7-hydroxy-3,4,6,8,9,9a-hexahydro-1H-pyrido[1,2-a]pyrazin-2-yl]-(6-amino-2-methylpyridin-3-yl)methanone] had an IC50 of 2960 nM. As for `O=C(c1cccc(N2CC(O)C2)c1Cl)N1CCN2C[C@@](O)(c3ccc(Cl)cc3)CC[C@@H]2C1` [Example 9, [(7S,9aR)-7-(4-chlorophenyl)-7-hydroxy-3,4,6,8,9,9a-hexahydro-1H-pyrido[1,2-a]pyrazin-2-yl]-[2-chloro-3-(3-hydroxyazetidin-1-yl)phenyl]methanone], the figure is 16.2 nM; as for `O=C(c1cccc(N2CC(O)C2)c1F)N1CCN2C[C@@](O)(c3ccc(Cl)cc3)CC[C@@H]2C1` [Example 10], 58.2 nM; as for `Cn1c(Cl)c(C(=O)N2CCN3C[C@](O)(c4ccc(Cl)cc4)CC[C@H]3C2)ccc1=O` [Example 11, 5-[(7R,9aS)-7-(4-chlorophenyl)-7-hydroxy-3,4,6,8,9,9a-hexahydro-1H-pyrido[1,2-a]pyrazine-2-carbonyl]-6-chloro-l-methylpyridin-2-one], 775 nM. Turning to `Cn1c(Cl)c(C(=O)N2CCN3C[C@@](O)(c4ccc(Cl)cc4)CC[C@@H]3C2)ccc1=O` [Example 12, 5-[(7S,9aR)-7-(4-chlorophenyl)-7-hydroxy-3,4,6,8,9,9a-hexahydro-1H-pyrido[1,2-a]pyrazine-2-carbonyl]-6-chloro-l-methylpyridin-2-one], inhibition was half-maximal at 4460 nM (IC50).

Turning to `O=C(c1cccc(N2CCOC2=O)c1Cl)N1CCN2C[C@@](O)(c3ccc(Cl)cc3)CC[C@@H]2C1` [Example 13, 3-[3-[(7S,9aR)-7-(4-chlorophenyl)-7-hydroxy-3,4,6,8,9,9a-hexahydro-1H-pyrido[1,2-a]pyrazine-2-carbonyl]-2-chlorophenyl]-1,3-oxazolidin-2-one], the IC50 came out at 1190 nM. Compound `O=C(c1cccc(N2CCNC2=O)c1Cl)N1CCN2C[C@@](O)(c3ccc(Cl)cc3)CC[C@@H]2C1` [Example 14, 1-[3-[(7S,9aR)-7-(4-chlorophenyl)-7-hydroxy-3,4,6,8,9,9a-hexahydro-1H-pyrido[1,2-a]pyrazine-2-carbonyl]-2-chlorophenyl]imidazolidin-2-one] had an IC50 of 2160 nM.
